Data taken from US6495591B1, “Fungal efflux pump inhibitors” (Essential Therapeutics, Inc., priority 1997, dated 2002).
Where two headings read alike, the source gives them in different places.

How the values were obtained:
[1] = molecular target: pCDRI (ABC) efflux pump in S. cerevisiae YEM-1 (Candida albicans, UniProt P43071); assay: cell-based; assay type: cell-based, C. albicans
[2] = molecular target: pCDR2 (ABC) efflux pump in S. cerevisiae YEM-37 (Candida albicans, UniProt P78595); assay: cell-based; assay type: cell-based, C. albicans
[3] = molecular target: pCgCDR (ABC) efflux pump in S. cerevisiae YEM-39 (Candida glabrata, UniProt Q6FK23); assay: cell-based; assay type: cell-based, C. glabrata
[4] = molecular target: pBEN (MF) efflux pump in S. cerevisiae YEM-2 (Candida albicans, UniProt P28873); assay: cell-based; assay type: cell-based, C. albicans
[5] = molecular target: pFLU (MF) efflux pump in S. cerevisiae YEM-38 (Candida albicans, UniProt G1UB37); assay: cell-based; assay type: cell-based, C. albicans
[6] = tested on: pCgBEN (MF) efflux pump in S. cerevisiae YEM-40; assay type: cell-based, C. glabrata
[7] = tested on: YEM 13 C. albicans BEN up; assay: microbe, parasite or virus in culture; assay type: cell-based; details: YEM 13, 24 hrs, 80% inhibition; for MIC of compound in the presence of fluconazole (+): 1/8 × MIC of fluconazole
[8] = tested on: YEM 15 C. albicans, CDR1CDR2 up; assay: microbe, parasite or virus in culture; assay type: cell-based; details: YEM 15, 24 hrs, 80% inhibition; for MIC of compound in the presence of fluconazole (+): 1/8 × MIC of fluconazole
[9] = tested on: YEM 53 C. krusei; assay: FEPI MIC with/without 1/8 fluconazole MIC at 24 hrs (Table 11); assay type: cell-based
[10] = tested on: YEM 17 C. glabrata, CgCDR up; assay type: cell-based; details: 24 hrs, 80% inhibition; for MIC of compound in the presence of fluconazole (+): 1/8 × MIC of fluconazole
[11] = tested on: YEM 51 C. glabrata wt; assay: FEPI MIC with/without 1/8 fluconazole MIC at 24 hrs (Table 11); assay type: cell-based
[12] = tested on: YEM 30 C. albicans wt; assay: as above; assay type: cell-based
[13] = tested on: YEM 24 C. albicans ΔCDR1, ΔCDR2; assay: microbe, parasite or virus in culture; assay type: cell-based; details: YEM 24, 24 hrs, 80% inhibition; for MIC of compound in the presence of fluconazole (+): 1/8 × MIC of fluconazole
[14] = tested on: YEM 27 C. albicans ΔCDR1ΔCDR2 ΔBENΔFLU1; assay: microbe, parasite or virus in culture; assay type: cell-based; details: YEM 27, 24 hrs, 80% inhibition; for MIC of compound in the presence of fluconazole (+): 1/8 × MIC of fluconazole
[15] = tested on: Aspergillus fumigatus; assay: FEPI MICs in combination with 1/4 the azole's MIC (Table 12); assay type: cell-based; set-up: FEPI MIC (alone): unit not given here; details: for FEPI MIC with itraconazole, 60% Inh / FEPI MIC with itraconazole, 80% Inh: itraconazole 0.063 μg/ml (1/4 MIC); for FEPI MIC with ketoconazole, 60% Inh / FEPI MIC with ketoconazole, 80% Inh: ketoconazole 4 μg/ml (1/4 MIC); for FEPI MIC (alone): no azole, 35° C., CM Broth
Protocol: The combinations were tested against a series of Candida strain with known expression of efflux pumps or with complete deletion of all known pumps and Aspergillus fumigatus. Results are reported as minimum inhibitory concentration (MIC) of […] in the presence or absence of […]. A total of 27 distinct milbemycins were studied.

[16] = YEM-40 pCgBEN, fluconazole fixed at FLUhalf 2.8

pCDR2 (ABC) efflux pump in S. cerevisiae YEM-37, sequence (P78595 whole entry): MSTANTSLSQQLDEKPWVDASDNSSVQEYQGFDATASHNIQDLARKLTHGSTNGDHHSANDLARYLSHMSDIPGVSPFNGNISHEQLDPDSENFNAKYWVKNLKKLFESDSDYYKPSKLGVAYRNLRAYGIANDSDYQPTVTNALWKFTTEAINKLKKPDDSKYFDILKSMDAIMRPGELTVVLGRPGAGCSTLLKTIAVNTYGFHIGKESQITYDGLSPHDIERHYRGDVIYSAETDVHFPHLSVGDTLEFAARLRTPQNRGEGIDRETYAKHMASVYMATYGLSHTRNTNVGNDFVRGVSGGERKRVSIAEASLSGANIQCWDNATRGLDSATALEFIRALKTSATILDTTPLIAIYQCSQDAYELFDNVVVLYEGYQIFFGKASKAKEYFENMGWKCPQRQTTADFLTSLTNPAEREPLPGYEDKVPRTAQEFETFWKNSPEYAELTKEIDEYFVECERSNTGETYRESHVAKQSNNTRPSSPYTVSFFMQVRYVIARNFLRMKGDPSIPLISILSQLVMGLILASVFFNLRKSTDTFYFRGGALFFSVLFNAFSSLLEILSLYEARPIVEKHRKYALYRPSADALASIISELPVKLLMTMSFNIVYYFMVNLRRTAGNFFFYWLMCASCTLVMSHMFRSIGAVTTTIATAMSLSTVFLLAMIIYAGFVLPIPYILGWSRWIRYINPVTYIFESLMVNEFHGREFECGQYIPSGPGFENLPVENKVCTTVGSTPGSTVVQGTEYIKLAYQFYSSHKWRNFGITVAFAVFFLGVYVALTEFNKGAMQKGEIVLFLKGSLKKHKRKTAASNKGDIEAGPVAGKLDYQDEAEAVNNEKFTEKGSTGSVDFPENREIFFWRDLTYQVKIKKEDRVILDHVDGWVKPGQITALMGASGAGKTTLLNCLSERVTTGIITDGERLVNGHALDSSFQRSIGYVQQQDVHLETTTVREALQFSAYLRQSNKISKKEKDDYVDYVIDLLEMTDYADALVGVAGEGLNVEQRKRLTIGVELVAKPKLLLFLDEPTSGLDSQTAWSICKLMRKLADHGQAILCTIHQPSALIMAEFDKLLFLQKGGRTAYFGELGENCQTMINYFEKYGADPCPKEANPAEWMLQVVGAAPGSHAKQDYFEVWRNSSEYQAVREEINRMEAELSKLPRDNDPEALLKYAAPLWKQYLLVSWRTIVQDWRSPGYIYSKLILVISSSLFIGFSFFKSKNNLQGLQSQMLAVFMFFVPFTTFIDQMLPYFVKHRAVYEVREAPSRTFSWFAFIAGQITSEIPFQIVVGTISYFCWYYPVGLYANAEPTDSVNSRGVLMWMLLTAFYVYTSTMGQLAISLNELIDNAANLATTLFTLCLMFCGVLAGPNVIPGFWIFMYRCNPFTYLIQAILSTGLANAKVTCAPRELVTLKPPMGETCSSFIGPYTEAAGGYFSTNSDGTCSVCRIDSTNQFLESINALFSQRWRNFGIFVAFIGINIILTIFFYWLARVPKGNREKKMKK
pFLU (MF) efflux pump in S. cerevisiae YEM-38, sequence (G1UB37 whole entry): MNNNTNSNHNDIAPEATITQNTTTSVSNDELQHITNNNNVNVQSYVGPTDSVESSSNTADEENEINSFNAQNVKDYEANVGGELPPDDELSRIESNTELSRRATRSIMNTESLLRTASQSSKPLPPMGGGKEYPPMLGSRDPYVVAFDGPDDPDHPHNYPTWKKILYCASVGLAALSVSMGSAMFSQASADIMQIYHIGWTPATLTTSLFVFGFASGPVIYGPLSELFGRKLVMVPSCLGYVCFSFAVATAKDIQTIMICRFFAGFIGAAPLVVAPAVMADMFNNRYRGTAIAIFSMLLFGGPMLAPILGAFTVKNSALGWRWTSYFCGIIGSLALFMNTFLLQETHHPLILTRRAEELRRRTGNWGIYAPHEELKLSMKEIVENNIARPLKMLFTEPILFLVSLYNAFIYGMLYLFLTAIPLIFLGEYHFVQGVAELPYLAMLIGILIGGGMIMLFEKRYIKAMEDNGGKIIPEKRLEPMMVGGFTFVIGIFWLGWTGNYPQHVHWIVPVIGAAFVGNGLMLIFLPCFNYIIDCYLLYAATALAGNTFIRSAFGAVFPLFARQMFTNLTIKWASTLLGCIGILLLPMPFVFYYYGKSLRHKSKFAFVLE
pBEN (MF) efflux pump in S. cerevisiae YEM-2, sequence (P28873 whole entry): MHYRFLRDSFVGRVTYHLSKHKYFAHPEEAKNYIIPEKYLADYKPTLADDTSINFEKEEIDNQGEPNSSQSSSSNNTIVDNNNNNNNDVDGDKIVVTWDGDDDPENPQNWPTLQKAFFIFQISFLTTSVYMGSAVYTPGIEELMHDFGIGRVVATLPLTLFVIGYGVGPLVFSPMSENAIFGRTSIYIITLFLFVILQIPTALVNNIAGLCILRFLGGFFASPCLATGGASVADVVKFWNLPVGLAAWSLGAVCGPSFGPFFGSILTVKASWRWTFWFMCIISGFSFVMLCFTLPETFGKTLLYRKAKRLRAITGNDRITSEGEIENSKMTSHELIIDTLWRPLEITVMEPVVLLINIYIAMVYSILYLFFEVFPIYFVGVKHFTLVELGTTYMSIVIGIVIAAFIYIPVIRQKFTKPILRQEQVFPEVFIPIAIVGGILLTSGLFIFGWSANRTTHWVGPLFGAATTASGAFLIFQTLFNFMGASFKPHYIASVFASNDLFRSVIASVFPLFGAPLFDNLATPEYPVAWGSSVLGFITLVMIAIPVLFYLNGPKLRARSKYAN
pCDRI (ABC) efflux pump in S. cerevisiae YEM-1, sequence (P43071 whole entry): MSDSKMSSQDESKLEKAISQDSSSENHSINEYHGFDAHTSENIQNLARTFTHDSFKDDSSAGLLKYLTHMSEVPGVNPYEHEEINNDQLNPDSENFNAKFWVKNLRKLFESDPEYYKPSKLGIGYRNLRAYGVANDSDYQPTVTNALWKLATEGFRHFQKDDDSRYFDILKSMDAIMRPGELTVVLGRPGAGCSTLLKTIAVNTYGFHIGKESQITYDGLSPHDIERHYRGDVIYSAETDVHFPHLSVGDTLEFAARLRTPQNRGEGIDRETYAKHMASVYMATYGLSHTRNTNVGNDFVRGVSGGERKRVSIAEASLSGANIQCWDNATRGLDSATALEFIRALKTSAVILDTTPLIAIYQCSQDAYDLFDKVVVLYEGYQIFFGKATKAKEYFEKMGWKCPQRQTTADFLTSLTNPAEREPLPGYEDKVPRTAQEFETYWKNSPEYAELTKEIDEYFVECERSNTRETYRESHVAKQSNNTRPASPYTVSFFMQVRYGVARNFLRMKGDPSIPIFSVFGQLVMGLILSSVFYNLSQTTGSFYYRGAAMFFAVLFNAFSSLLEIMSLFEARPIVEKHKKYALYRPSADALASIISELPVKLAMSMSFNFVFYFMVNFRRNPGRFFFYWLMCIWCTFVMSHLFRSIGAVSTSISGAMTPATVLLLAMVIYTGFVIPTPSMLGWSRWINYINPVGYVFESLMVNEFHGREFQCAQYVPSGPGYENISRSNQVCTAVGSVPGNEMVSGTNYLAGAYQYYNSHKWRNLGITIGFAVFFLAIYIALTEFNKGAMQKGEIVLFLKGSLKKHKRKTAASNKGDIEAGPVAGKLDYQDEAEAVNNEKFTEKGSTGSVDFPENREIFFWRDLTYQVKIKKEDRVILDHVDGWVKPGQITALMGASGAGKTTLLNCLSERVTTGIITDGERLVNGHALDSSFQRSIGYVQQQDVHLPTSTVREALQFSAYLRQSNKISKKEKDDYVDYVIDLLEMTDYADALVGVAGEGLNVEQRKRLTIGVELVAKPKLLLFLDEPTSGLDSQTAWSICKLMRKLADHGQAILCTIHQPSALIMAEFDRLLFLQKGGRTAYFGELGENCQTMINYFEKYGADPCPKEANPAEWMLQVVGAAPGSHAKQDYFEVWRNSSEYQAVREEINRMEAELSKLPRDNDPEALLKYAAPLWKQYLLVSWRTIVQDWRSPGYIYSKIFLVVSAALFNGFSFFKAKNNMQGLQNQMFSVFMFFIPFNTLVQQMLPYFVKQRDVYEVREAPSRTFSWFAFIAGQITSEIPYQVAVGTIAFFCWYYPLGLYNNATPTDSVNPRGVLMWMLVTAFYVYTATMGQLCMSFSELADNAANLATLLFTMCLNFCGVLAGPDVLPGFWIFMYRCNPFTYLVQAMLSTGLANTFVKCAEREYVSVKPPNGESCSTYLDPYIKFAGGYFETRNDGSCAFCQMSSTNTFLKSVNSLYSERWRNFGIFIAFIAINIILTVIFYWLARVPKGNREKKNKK

Compound	FEPIhalf (concentration needed to reduce activity of efflux pump by 50%) [6, 16]	MIC of compound in the presence of fluconazole (+) [7] [µg/mL]	MIC of compound in the absence of fluconazole (−) [7] [µg/mL]	MIC of compound in the presence of fluconazole (+) [8]	MIC of compound in the absence of fluconazole (−) [8] [µg/mL]	MIC of compound in the presence of fluconazole (+) [9] [µg/mL]	MIC of compound in the absence of fluconazole (−) ([9]; YEM 53, 24 hrs, 80% inhibition) [µg/mL]	MIC of compound in the presence of fluconazole (+) [10] [µg/mL]	MIC of compound in the absence of fluconazole (−) [10] [µg/mL]	MIC of compound in the absence of fluconazole (−) ([11]; YEM 51, 24 hrs, 80% inhibition) [µg/mL]	MIC of compound in the absence of fluconazole (−) ([12]; YEM 30, 24 hrs, 80% inhibition) [µg/mL]	MIC of compound in the presence of fluconazole (+) [13] [µg/mL]	MIC of compound in the absence of fluconazole (−) [13] [µg/mL]	MIC of compound in the presence of fluconazole (+) [14] [µg/mL]	MIC of compound in the absence of fluconazole (−) [14] [µg/mL]	FEPI MIC with itraconazole, 60% Inh ([15]; 60% inhibition)	FEPI MIC with itraconazole, 80% Inh ([15]; 80% inhibition)	FEPI MIC with ketoconazole, 60% Inh ([15]; 60% inhibition)	FEPI MIC with ketoconazole, 80% Inh ([15]; 80% inhibition)	FEPI MIC (alone) ([15]; 80% inhibition)	further results
CC[C@H]1O[C@]2(CC[C@@H]1C)C[C@@H]1C[C@@H](C/C=C(\C)C[C@@H](C)/C=C/C=C3\CO[C@@H]4[C@H](O)C(C)=C[C@@H](C(=O)O1)[C@]34O)O2 [Compound 7, Milbemycin α3]	>64	> 64	> 64	0.125 µg/mL	> 64	16	> 64	> 64	> 64	> 64	> 64	> 64	> 64	> 64	> 64	>64	>64	≦0.063	≦0.063	>64	IC50 [1]: 0.921 µM; IC50 [2]: 14.7 µM; IC50 [3]: 29.5 µM; IC50 [4]: 29.5 µM; IC50 [5]: > 118 µM; MIC of compound in the presence of fluconazole (+) [11]: > 64 µg/mL; MIC of compound in the presence of fluconazole (+) [12]: ≦0.03; FEPI MIC with fluconazole, 60% Inh [15]: >64; FEPI MIC with fluconazole, 80% Inh [15]: >64
CO[C@@H]1C(C)=C[C@H]2C(=O)O[C@H]3C[C@@H](C/C=C(\C)C[C@@H](C)/C=C/C=C4\CO[C@H]1[C@@]42O)O[C@@]1(CC[C@H](C)[C@@H](C)O1)C3 [Compound 4, Milbemycin α2]	>64	> 64	> 64	≦0.03	> 64	8	> 64	2	> 64	> 64	> 64	> 64	> 64	64	> 64	2	>64	0.5	0.5	>64	IC50 [1]: 0.23 µM; IC50 [2]: 0.461 µM; IC50 [3]: 7.37 µM; IC50 [4]: > 118 µM; IC50 [5]: > 118 µM; MIC of compound in the presence of fluconazole (+) [11]: 4 µg/mL; MIC of compound in the presence of fluconazole (+) [12]: ≦0.03; FEPI MIC with fluconazole, 60% Inh [15]: 1; FEPI MIC with fluconazole, 80% Inh [15]: >64
5-Keto-8-deoxymilbemycin β1 [Compound 22]	–	> 64	> 64	≦0.03	> 64	–	> 64	> 64	> 64	> 64	> 64	> 64	> 64	> 64	> 64	>64	>64	≦0.063	≦0.063	>64	FEPIhalf (concentration needed to reduce activity of efflux pump by 50%) ([1]; YEM-1 pCDRI, fluconazole fixed at FLUhalf 5.6): <0.06; FEPIhalf (concentration needed to reduce activity of efflux pump by 50%) ([2]; YEM-37 pCDR2, fluconazole fixed at FLUhalf 1): 1; FEPIhalf (concentration needed to reduce activity of efflux pump by 50%) ([3]; YEM-39 pCgCDR, fluconazole fixed at FLUhalf 4): 64; FEPIhalf (concentration needed to reduce activity of efflux pump by 50%) ([4]; YEM-2 pBEN, fluconazole fixed at FLUhalf 5.6): >64; FEPIhalf (concentration needed to reduce activity of efflux pump by 50%) ([5]; YEM-38 pFLU, fluconazole fixed at FLUhalf 2): >64; FEPIhalf (concentration needed to reduce activity of efflux pump by 50%) [6]: >64; MIC of compound in the presence of fluconazole (+) ([9]; YEM 53, 1/8 × MIC of fluconazole, 24 hrs, 80% inhibition): 8 µg/mL; MIC of compound in the presence of fluconazole (+) ([11]; YEM 51, 1/8 × MIC of fluconazole, 24 hrs, 80% inhibition): > 64 µg/mL; MIC of compound in the presence of fluconazole (+) ([12]; YEM 30, 1/8 × MIC of fluconazole, 24 hrs, 80% inhibition): ≦0.03; FEPI MIC with fluconazole, 60% Inh ([15]; fluconazole 32 μg/ml (1/4 MIC), 60% inhibition): >64; FEPI MIC with fluconazole, 80% Inh ([15]; fluconazole 32 μg/ml (1/4 MIC), 80% inhibition): >64
CC1=C[C@H]2C(=O)O[C@H]3C[C@@H](C/C=C(\C)C[C@@H](C)/C=C/C=C4\CO[C@H]([C@@H]1O)[C@@]42O)O[C@]1(C3)C[C@H](O)[C@H](C)[C@@H](/C(C)=C/C(C)C)O1 [Compound 15, LL-F2849α (nemedectinα)]	>64	> 64	> 64	0.5 µg/mL	> 64	> 64	> 64	2	> 64	> 64	> 64	> 64	> 64	> 64	> 64	1	>64	0.25	0.25	>64	IC50 [1]: 3.26 µM; IC50 [2]: 1.63 µM; IC50 [3]: 6.53 µM; IC50 [4]: > 104 µM; IC50 [5]: > 104 µM; MIC of compound in the presence of fluconazole (+) [11]: 4 µg/mL; MIC of compound in the presence of fluconazole (+) [12]: ≦0.03; FEPI MIC with fluconazole, 60% Inh [15]: 0.25; FEPI MIC with fluconazole, 80% Inh [15]: >64
CCCCC(C)C(=O)OC1[C@@H](O)[C@]2(C[C@@H]3C[C@@H](C/C=C(\C)C[C@@H](C)/C=C/C=C4\CO[C@@H]5[C@H](OC)C(C)=CC(C(=O)O3)[C@]45O)O2)O[C@H](C)[C@H]1C (stereo partly drawn) [Compound 9, Milbemycin α6]	>64	> 64	> 64	0.125 µg/mL	> 64	> 64	> 64	0.5	> 64	> 64	> 64	> 64	> 64	> 64	> 64	1	>64	≦0.063	≦0.063	>64	IC50 ([1]; read-out: FEPIhalf (concentration needed to reduce activity of efflux pump by 50%), YEM-1 pCDRI, fluconazole fixed at FLUhalf 5.6): 2.91 µM; IC50 ([2]; read-out: FEPIhalf (concentration needed to reduce activity of efflux pump by 50%), YEM-37 pCDR2, fluconazole fixed at FLUhalf 1): > 93.2 µM; IC50 ([3]; read-out: FEPIhalf (concentration needed to reduce activity of efflux pump by 50%), YEM-39 pCgCDR, fluconazole fixed at FLUhalf 4): 1.46 µM; IC50 ([4]; read-out: FEPIhalf (concentration needed to reduce activity of efflux pump by 50%), YEM-2 pBEN, fluconazole fixed at FLUhalf 5.6): > 93.2 µM; IC50 ([5]; read-out: FEPIhalf (concentration needed to reduce activity of efflux pump by 50%), YEM-38 pFLU, fluconazole fixed at FLUhalf 2): > 93.2 µM; MIC of compound in the presence of fluconazole (+) [11]: 1 µg/mL; MIC of compound in the presence of fluconazole (+) [12]: ≦0.03; FEPI MIC with fluconazole, 60% Inh [15]: 64; FEPI MIC with fluconazole, 80% Inh [15]: >64
